Measured values as given in patent US4416884A, “Piperazinylbenzoheterocyclic compounds” (Otsuka Pharmaceutical Co., Ltd., priority 1978, dated 1983).
Converted amounts (≈) assume the structure as drawn. Like-named read-outs stand apart in the source and are kept apart here.

Experiments:
Assay type in all cases: cell-based
[1] = system: Corinebacterium diphteriae; assay: antimicrobial activity, serial dilution method on agar plate
Procedure, shortened: (§1)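 Test compounds were diluted serially into Heart Infusion agar plates. Each organism was adjusted to 1×10^8 cells/ml by optical density at 660 mμ, then also diluted to 1×10^6 cells/ml. Minimum inhibitory concentrations were recorded in mcg/ml.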

[2] = system: Enterobacter aerogenes IFO 12979; assay: as above; conditions: Klebsiella aerogenes
Procedure, shortened: as §1

Enterobacter cloacae = assay: as above
Procedure, shortened: as §1

Escherichia Coli NIHJ = assay: as above
Procedure, shortened: as §1

Hafnia alvei IFO 3731 = assay: as above
Procedure, shortened: as §1

Klebsiella pneumoniae = assay: as above
Procedure, shortened: as §1

Proteus rettgeri NIH 96 = assay: as above; conditions: Providencia rettgeri
Procedure, shortened: as §1

[3] = system: Proteus vulgaris IID OX-19; assay: as above; conditions: read-out: Minimum Inhibitory Concentration
Procedure, shortened: as §1

[4] = system: Pseudomonas aeruginosa E-2; assay: as above
Procedure, shortened: as §1

[5] = system: Pseudomonas aeruginosa NCTC 10490; assay: as above
Procedure, shortened: as §1

[6] = system: Pseudomonas maltophilia IFO 12692; assay: as above; conditions: Stenotrophomonas maltophilia
Procedure, shortened: as §1

[7] = system: Pseudomonas putida IFO 13696; assay: as above
Procedure, shortened: as §1

[8] = system: Salmonella typhi 0-901 (NCTC 8393); assay: as above; conditions: Salmonella enterica
Procedure, shortened: as §1

[9] = system: Serattia marcescens IFO 12648; assay: as above
Procedure, shortened: as §1

Shigella Sonnei EW 33 = assay: as above; conditions: read-out: Minimum Inhibitory Concentration
Procedure, shortened: as §1

[10] = system: Staphylococcus aureus FDA 209 P; assay: as above
Procedure, shortened: as §1

[11] = system: Streptococcus pneumoniae Type I; assay: as above
Procedure, shortened: as §1

[12] = system: Streptococcus pyogenes IID S-23; assay: as above
Procedure, shortened: as §1

[13] = system: Yersinia enterocolitica 0-3; assay: as above
Procedure, shortened: as §1

[14] = system: Test Organism 2 (Escherichia Coli NIHJ JC-2 (IFO 12734)); assay: influence of the addition of horse serum on the MIC
[15] = read-out: Minimum Inhibitory Concentration, inoculum 1 × 10^6 cells/ml
[16] = read-out: Minimum Inhibitory Concentration, inoculum 1 × 10^8 cells/ml
[17] = inoculum 1 × 10^6 cells/ml, read-out: Minimum Inhibitory Concentration
[18] = inoculum 1 × 10^8 cells/ml, read-out: Minimum Inhibitory Concentration

Structure (SMILES): CC1Cc2c(N3CCNCC3)ccc3c(=O)c(C(=O)O)cn1c23 (stereo not drawn) [C]
- MIC [1, 15]: 6.3 µg/mL (≈ 20.1 µM)
- MIC [1, 16]: 25 µg/mL (≈ 79.8 µM)
- MIC ([2]; IFO12979, read-out: Minimum Inhibitory Concentration, inoculum 1 × 10^6 cells/ml): 0.4 µg/mL (≈ 1.28 µM)
- MIC ([2]; IFO12979, read-out: Minimum Inhibitory Concentration, inoculum 1 × 10^8 cells/ml): 0.8 µg/mL (≈ 2.55 µM)
- MIC (Enterobacter cloacae; [15]): 0.4 µg/mL (≈ 1.28 µM)
- MIC (Enterobacter cloacae; [16]): 0.8 µg/mL (≈ 2.55 µM)
- MIC (Escherichia Coli NIHJ; [15]): 0.4 µg/mL (≈ 1.28 µM)
- MIC (Escherichia Coli NIHJ; [16]): 0.8 µg/mL (≈ 2.55 µM)
- MIC (Hafnia alvei IFO 3731; IFO3731, read-out: Minimum Inhibitory Concentration, inoculum 1 × 10^6 cells/ml): 0.8 µg/mL (≈ 2.55 µM)
- MIC (Hafnia alvei IFO 3731; IFO3731, read-out: Minimum Inhibitory Concentration, inoculum 1 × 10^8 cells/ml): 1.6 µg/mL (≈ 5.11 µM)
- MIC (Klebsiella pneumoniae; [15]): 0.8 µg/mL (≈ 2.55 µM)
- MIC (Klebsiella pneumoniae; [16]): 0.8 µg/mL (≈ 2.55 µM)
- MIC (Proteus rettgeri NIH 96; NIH96, read-out: Minimum Inhibitory Concentration, inoculum 1 × 10^6 cells/ml): 0.8 µg/mL (≈ 2.55 µM)
- MIC (Proteus rettgeri NIH 96; NIH96, read-out: Minimum Inhibitory Concentration, inoculum 1 × 10^8 cells/ml): 0.8 µg/mL (≈ 2.55 µM)
- MIC ([3]; IIDOX19, inoculum 1 × 10^6 cells/ml): 0.8 µg/mL (≈ 2.55 µM)
- MIC ([3]; IIDOX19, inoculum 1 × 10^8 cells/ml): 3.1 µg/mL (≈ 9.89 µM)
- MIC ([4]; E2, read-out: Minimum Inhibitory Concentration, inoculum 1 × 10^6 cells/ml): 3.1 µg/mL (≈ 9.89 µM)
- MIC ([4]; E2, read-out: Minimum Inhibitory Concentration, inoculum 1 × 10^8 cells/ml): 6.3 µg/mL (≈ 20.1 µM)
- MIC ([5]; NCTC10490, read-out: Minimum Inhibitory Concentration, inoculum 1 × 10^6 cells/ml): 3.1 µg/mL (≈ 9.89 µM)
- MIC ([5]; NCTC10490, read-out: Minimum Inhibitory Concentration, inoculum 1 × 10^8 cells/ml): 6.3 µg/mL (≈ 20.1 µM)
- MIC ([6]; IFO12692, read-out: Minimum Inhibitory Concentration): 6.3 µg/mL (≈ 20.1 µM)
- MIC ([7]; IFO13696, read-out: Minimum Inhibitory Concentration, inoculum 1 × 10^6 cells/ml): 3.1 µg/mL (≈ 9.89 µM)
- MIC ([7]; IFO13696, read-out: Minimum Inhibitory Concentration, inoculum 1 × 10^8 cells/ml): 3.1 µg/mL (≈ 9.89 µM)
- MIC [8, 17]: 0.2 µg/mL (≈ 0.638 µM)
- MIC [8, 18]: 0.4 µg/mL (≈ 1.28 µM)
- MIC [9, 15]: 1.6 µg/mL (≈ 5.11 µM)
- MIC [9, 16]: 3.1 µg/mL (≈ 9.89 µM)
- MIC (Shigella Sonnei EW 33; inoculum 1 × 10^6 cells/ml): 1.6 µg/mL (≈ 5.11 µM)
- MIC (Shigella Sonnei EW 33; inoculum 1 × 10^8 cells/ml): 1.6 µg/mL (≈ 5.11 µM)
- MIC ([10]; FDA209, read-out: Minimum Inhibitory Concentration, inoculum 1 × 10^6 cells/ml): 25 µg/mL (≈ 79.8 µM)
- MIC ([10]; FDA209, read-out: Minimum Inhibitory Concentration, inoculum 1 × 10^8 cells/ml): 25 µg/mL (≈ 79.8 µM)
- MIC [11, 15]: 50 µg/mL (≈ 160 µM)
- MIC [11, 16]: 100 µg/mL (≈ 319 µM)
- MIC ([12]; IIDS23, read-out: Minimum Inhibitory Concentration, inoculum 1 × 10^6 cells/ml): 50 µg/mL (≈ 160 µM)
- MIC ([12]; IIDS23, read-out: Minimum Inhibitory Concentration, inoculum 1 × 10^8 cells/ml): 100 µg/mL (≈ 319 µM)
- MIC ([13]; Yersinia enterocolitica, 03, read-out: Minimum Inhibitory Concentration, inoculum 1 × 10^6 cells/ml): 1.6 µg/mL (≈ 5.11 µM)
- MIC ([13]; Yersinia enterocolitica, 03, read-out: Minimum Inhibitory Concentration, inoculum 1 × 10^8 cells/ml): 1.6 µg/mL (≈ 5.11 µM)
- MIC ([14]; read-out: Minimum Inhibitory Concentration, horse serum 0%, inoculum 10^6): 1.6 µg/mL (≈ 5.11 µM)
- MIC ([14]; read-out: Minimum Inhibitory Concentration, horse serum 0%, inoculum 10^8): 1.6 µg/mL (≈ 5.11 µM)
- MIC ([14]; read-out: Minimum Inhibitory Concentration, horse serum 10%, inoculum 10^6): 1.6 µg/mL (≈ 5.11 µM)
- MIC ([14]; read-out: Minimum Inhibitory Concentration, horse serum 10%, inoculum 10^8): 1.6 µg/mL (≈ 5.11 µM)
- MIC ([14]; read-out: Minimum Inhibitory Concentration, horse serum 20%, inoculum 10^6): 1.6 µg/mL (≈ 5.11 µM)
- MIC ([14]; read-out: Minimum Inhibitory Concentration, horse serum 20%, inoculum 10^8): 0.8 µg/mL (≈ 2.55 µM)
- MIC ([14]; read-out: Minimum Inhibitory Concentration, horse serum 40%, inoculum 10^6): 0.4 µg/mL (≈ 1.28 µM)
- MIC ([14]; read-out: Minimum Inhibitory Concentration, horse serum 40%, inoculum 10^8): 0.4 µg/mL (≈ 1.28 µM)

Structure (SMILES): CC1CCc2cc(F)cc3c(=O)c(C(=O)O)cn1c23 (stereo not drawn) [F]
- MIC [1, 17]: > 6.3 µg/mL
- MIC [1, 18]: > 25 µg/mL
- MIC ([2]; IFO12979, inoculum 1 × 10^6 cells/ml, read-out: Minimum Inhibitory Concentration): 0.2 µg/mL (≈ 0.766 µM)
- MIC ([2]; IFO12979, inoculum 1 × 10^8 cells/ml, read-out: Minimum Inhibitory Concentration): 0.4 µg/mL (≈ 1.53 µM)
- MIC (Enterobacter cloacae; [17]): 0.2 µg/mL (≈ 0.766 µM)
- MIC (Enterobacter cloacae; [18]): 0.4 µg/mL (≈ 1.53 µM)
- MIC (Escherichia Coli NIHJ; [17]): 0.1 µg/mL (≈ 0.383 µM)
- MIC (Escherichia Coli NIHJ; [18]): 0.2 µg/mL (≈ 0.766 µM)
- MIC (Hafnia alvei IFO 3731; IFO3731, inoculum 1 × 10^6 cells/ml, read-out: Minimum Inhibitory Concentration): 125 µg/mL (≈ 478 µM)
- MIC (Hafnia alvei IFO 3731; IFO3731, inoculum 1 × 10^8 cells/ml, read-out: Minimum Inhibitory Concentration): 25 µg/mL (≈ 95.7 µM)
- MIC (Klebsiella pneumoniae; [17]): 0.4 µg/mL (≈ 1.53 µM)
- MIC (Klebsiella pneumoniae; [18]): 0.8 µg/mL (≈ 3.06 µM)
- MIC (Proteus rettgeri NIH 96; NIH96, inoculum 1 × 10^6 cells/ml, read-out: Minimum Inhibitory Concentration): 0.1 µg/mL (≈ 0.383 µM)
- MIC (Proteus rettgeri NIH 96; NIH96, inoculum 1 × 10^8 cells/ml, read-out: Minimum Inhibitory Concentration): 0.2 µg/mL (≈ 0.766 µM)
- MIC ([4]; E2, inoculum 1 × 10^6 cells/ml, read-out: Minimum Inhibitory Concentration): 50 µg/mL (≈ 191 µM)
- MIC ([4]; E2, inoculum 1 × 10^8 cells/ml, read-out: Minimum Inhibitory Concentration): 50 µg/mL (≈ 191 µM)
- MIC ([5]; NCTC10490, inoculum 1 × 10^6 cells/ml, read-out: Minimum Inhibitory Concentration): 12.5 µg/mL (≈ 47.8 µM)
- MIC ([5]; NCTC10490, inoculum 1 × 10^8 cells/ml, read-out: Minimum Inhibitory Concentration): 25 µg/mL (≈ 95.7 µM)
- MIC ([6]; IFO12692, inoculum 1 × 10^8 cells/ml, read-out: Minimum Inhibitory Concentration): 25 µg/mL (≈ 95.7 µM)
- MIC ([7]; IFO13696, inoculum 1 × 10^6 cells/ml, read-out: Minimum Inhibitory Concentration): 125 µg/mL (≈ 478 µM)
- MIC ([7]; IFO13696, inoculum 1 × 10^8 cells/ml, read-out: Minimum Inhibitory Concentration): 25 µg/mL (≈ 95.7 µM)
- MIC [8, 15]: 0.2 µg/mL (≈ 0.766 µM)
- MIC [8, 16]: 0.2 µg/mL (≈ 0.766 µM)
- MIC [9, 17]: 0.4 µg/mL (≈ 1.53 µM)
- MIC [9, 18]: 0.8 µg/mL (≈ 3.06 µM)
- MIC (Shigella Sonnei EW 33; inoculum 1 × 10^6 cells/ml): 0.8 µg/mL (≈ 3.06 µM)
- MIC (Shigella Sonnei EW 33; inoculum 1 × 10^8 cells/ml): 0.8 µg/mL (≈ 3.06 µM)
- MIC ([10]; FDA209, inoculum 1 × 10^6 cells/ml, read-out: Minimum Inhibitory Concentration): 1.6 µg/mL (≈ 6.12 µM)
- MIC ([10]; FDA209, inoculum 1 × 10^8 cells/ml, read-out: Minimum Inhibitory Concentration): 3.1 µg/mL (≈ 11.9 µM)
- MIC [11, 18]: > 100 µg/mL
- MIC ([12]; IIDS23, inoculum 1 × 10^6 cells/ml, read-out: Minimum Inhibitory Concentration): > 100 µg/mL
- MIC ([12]; IIDS23, inoculum 1 × 10^8 cells/ml, read-out: Minimum Inhibitory Concentration): > 100 µg/mL
- MIC ([13]; Yersinia enterocolitica, 03, inoculum 1 × 10^6 cells/ml, read-out: Minimum Inhibitory Concentration): 0.4 µg/mL (≈ 1.53 µM)
- MIC ([13]; Yersinia enterocolitica, 03, inoculum 1 × 10^8 cells/ml, read-out: Minimum Inhibitory Concentration): 0.8 µg/mL (≈ 3.06 µM)
- MIC ([14]; horse serum 0%, inoculum 10^6, read-out: Minimum Inhibitory Concentration): 0.8 µg/mL (≈ 3.06 µM)
- MIC ([14]; horse serum 0%, inoculum 10^8, read-out: Minimum Inhibitory Concentration): 0.8 µg/mL (≈ 3.06 µM)
- MIC ([14]; horse serum 10%, inoculum 10^6, read-out: Minimum Inhibitory Concentration): 0.8 µg/mL (≈ 3.06 µM)
- MIC ([14]; horse serum 10%, inoculum 10^8, read-out: Minimum Inhibitory Concentration): 0.8 µg/mL (≈ 3.06 µM)
- MIC ([14]; horse serum 20%, inoculum 10^6, read-out: Minimum Inhibitory Concentration): 0.8 µg/mL (≈ 3.06 µM)
- MIC ([14]; horse serum 20%, inoculum 10^8, read-out: Minimum Inhibitory Concentration): 0.8 µg/mL (≈ 3.06 µM)
- MIC ([14]; horse serum 40%, inoculum 10^6, read-out: Minimum Inhibitory Concentration): 1.6 µg/mL (≈ 6.12 µM)
- MIC ([14]; horse serum 40%, inoculum 10^8, read-out: Minimum Inhibitory Concentration): 1.6 µg/mL (≈ 6.12 µM)
